# Measurements: patent US20110118262A1, “Pyrrolidinyl and Piperidinyl Compounds Useful as NHE-1 Inhibitiors” (BOEHRINGER INGELHEIM INTERNATIONAL GMBH, priority 2008, published 2011)
# Target: T1, NHE-1 (Homo sapiens, UniProt P19634)
# T1 construct: endogenous in cells; host or cells: HT-29
# Assay: Evaluation of NHE-1 Inhibition (pHi) in HT-29 cells
# Assay type: cell-based
# Settings: BCECF dye, 50% inhibition of the intracellular pH recovery, read-out: NHE1 HT29 pHi IC50
# Procedure: Evaluation of NHE-1 Inhibition (pHi)
# HT-29 cells resuspended in DMEM supplemented with 10% FBS, 1% NEAA, and 1% Penn-Strep are seeded at 10,000 cells/well in collagen coated 384 well plates which are then incubated for 24 hours at 37° C. The next day, the medium is removed and the cells are dye (Invitrogen's BCECF) loaded for 30 minutes at 37° C., washed three times with an acid loading buffer (10 mM NH4Cl, 1.8 mM CaCl2, 90 mM Choline Cl, 5 mM Glucose, 15 mM Hepes, 5 mM KCl, 1 mM MgCl2, adjusted to pH 7.5 with KOH) and further incubated at RT for 30 minutes.
# At the end of the incubation, the buffer is removed and 5 uL of fresh acid loading buffer is added to each well to prevent the dessication of the cells. The plate is placed in a Hamamatsu FDSS6000 instrument and candidate compounds are added to the cells.
# T1 sequence (P19634 whole entry): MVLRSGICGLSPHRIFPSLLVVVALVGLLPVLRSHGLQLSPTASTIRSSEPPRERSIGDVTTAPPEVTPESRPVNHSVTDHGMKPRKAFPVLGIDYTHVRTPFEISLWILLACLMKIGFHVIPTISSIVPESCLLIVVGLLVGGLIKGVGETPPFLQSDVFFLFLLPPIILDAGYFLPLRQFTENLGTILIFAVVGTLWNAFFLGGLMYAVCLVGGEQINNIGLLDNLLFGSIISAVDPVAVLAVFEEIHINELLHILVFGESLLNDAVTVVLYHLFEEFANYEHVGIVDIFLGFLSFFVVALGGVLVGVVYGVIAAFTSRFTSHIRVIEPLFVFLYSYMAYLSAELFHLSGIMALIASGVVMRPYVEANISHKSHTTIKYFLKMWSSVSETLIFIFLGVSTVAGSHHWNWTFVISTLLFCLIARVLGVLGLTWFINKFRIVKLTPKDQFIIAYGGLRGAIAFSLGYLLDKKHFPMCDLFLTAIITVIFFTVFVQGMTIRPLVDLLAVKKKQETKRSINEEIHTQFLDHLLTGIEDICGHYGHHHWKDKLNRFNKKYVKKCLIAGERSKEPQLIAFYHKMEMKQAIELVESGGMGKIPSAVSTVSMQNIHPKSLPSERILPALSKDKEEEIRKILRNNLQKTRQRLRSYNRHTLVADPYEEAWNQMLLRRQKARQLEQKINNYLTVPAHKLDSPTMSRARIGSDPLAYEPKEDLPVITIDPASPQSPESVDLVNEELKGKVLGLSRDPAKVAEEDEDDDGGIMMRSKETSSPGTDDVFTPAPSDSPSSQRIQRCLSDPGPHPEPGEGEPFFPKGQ
row,Structure (SMILES),IC50 [nM]
1,N#Cc1ccc(CC(N)C(=O)N2CCC(c3ccc(C(=O)NC(=N)N)cc3C(F)(F)F)CC2)cc1 (centres unmarked) [N-(4-{1-[2-Amino-3-(4-cyano-phenyl)-propionyl]-piperidin-4-yl}-3-trifluoromethyl-benzoyl)-guanidine],58
2,N=C(N)NC(=O)c1ccc(C2CCN(C(=O)c3cncc(-c4ccc(F)cc4)c3)CC2)c(C(F)(F)F)c1 [N-(4-{1-[5-(4-Fluoro-phenyl)-pyridine-3-carbonyl]-piperidin-4-yl}-3-trifluoromethyl-benzoyl)-guanidine],185
3,COc1cccc(-c2ccc(C(=O)N3CCC(c4ccc(C(=O)NC(=N)N)cc4C(F)(F)F)CC3)cn2)c1 [N-(4-{1-[6-(3-Methoxy-phenyl)-pyridine-3-carbonyl]-piperidin-4-yl}-3-trifluoromethyl-benzoyl)-guanidine],250
4,CS(=O)(=O)c1ccc(Oc2ccc(C(=O)N3CCC(c4ccc(C(=O)NC(=N)N)cc4C(F)(F)F)CC3)cn2)cc1 [N-(4-{1-[6-(4-Methanesulfonyl-phenoxy)-pyridine-3-carbonyl]-piperidin-4-yl}-3-trifluoromethyl-benzoyl)-guanidine],54
5,COc1cc(C2CCN(C(C)=O)CC2)c(C(F)(F)F)cc1C(=O)NC(=N)N [N-[4-(1-Acetyl-piperidin-4-yl)-2-methoxy-5-trifluoromethyl-benzoyl]-guanidine],14
6,CC(=O)N1CCC(c2cc(C)c(C(=O)NC(=N)N)cc2C(F)(F)F)CC1 [N-[4-(1-Acetyl-piperidin-4-yl)-2-methyl-5-trifluoromethyl-benzoyl]-guanidine],9
7,CC(=O)N1CCC(c2ccc(C(=O)NC(=N)N)cc2S(C)(=O)=O)CC1 [N-[4-(1-Acetyl-piperidin-4-yl)-3-methanesulfonyl-benzoyl]-guanidine],18
8,CC(=O)N1CCC(c2ccc(C(=O)NC(=N)N)cc2C(F)(F)F)CC1 [N-[4-(1-Acetyl-piperidin-4-yl)-3-trifluoromethyl-benzoyl]-guanidine],9
9,CC(=O)N1CCC(c2cc(C)c(C(=O)NC(=N)N)cc2S(C)(=O)=O)CC1 [N-[4-(1-Acetyl-piperidin-4-yl)-5-methanesulfonyl-2-methyl-benzoyl]-guanidine],12
10,N=C(N)NC(=O)c1ccc(C2CCN(C(=O)c3ccccc3)CC2)c(C(F)(F)F)c1 [N-[4-(1-Benzoyl-piperidin-4-yl)-3-trifluoromethyl-benzoyl]-guanidine],45
11,CCCC(=O)N1CCC(c2ccc(C(=O)NC(=N)N)cc2C(F)(F)F)CC1 [N-[4-(1-Butyryl-piperidin-4-yl)-3-trifluoromethyl-benzoyl]-guanidine],30
12,N=C(N)NC(=O)c1ccc(C2CCN(C(=O)C3CCCC3)CC2)c(C(F)(F)F)c1 [N-[4-(1-Cyclopentanecarbonyl-piperidin-4-yl)-3-trifluoromethyl-benzoyl]-guanidine],77
13,N=C(N)NC(=O)c1ccc(C2CCN(C(=O)C3CC3)CC2)c(C(F)(F)F)c1 [N-[4-(1-Cyclopropanecarbonyl-piperidin-4-yl)-3-trifluoromethyl-benzoyl]-guanidine],16
14,CC(C)C(=O)N1CCC(c2ccc(C(=O)NC(=N)N)cc2C(F)(F)F)CC1 [N-[4-(1-Isobutyryl-piperidin-4-yl)-3-trifluoromethyl-benzoyl]-guanidine],25
15,CCC(=O)N1CCC(c2ccc(C(=O)NC(=N)N)cc2C(F)(F)F)CC1 [N-[4-(1-Propionyl-piperidin-4-yl)-3-trifluoromethyl-benzoyl]-guanidine],12
16,COCC(=O)N1CCC(c2cc(OC)c(C(=O)NC(=N)N)cc2C(F)(F)F)CC1 [N-{2-Methoxy-4-[1-(2-methoxy-acetyl)-piperidin-4-yl]-5-trifluoromethyl-benzoyl}-guanidine],9
17,"COc1cc(C2CCN(C(=O)c3ccc4c(c3)CCC(=O)N4)CC2)c(C(F)(F)F)cc1C(=O)NC(=N)N [N-{2-Methoxy-4-[1-(2-oxo-1,2,3,4-tetrahydro-quinoline-6-carbonyl)-piperidin-4-yl]-5-trifluoromethyl-benzoyl}-guanidine]",4
18,COc1cc(C2CCN(C(=O)c3ccn[nH]3)CC2)c(C(F)(F)F)cc1C(=O)NC(=N)N [N-{2-Methoxy-4-[1-(2H-pyrazole-3-carbonyl)-piperidin-4-yl]-5-trifluoromethyl-benzoyl}-guanidine],6
19,COc1cc(C2CCN(C(=O)c3ccccn3)CC2)c(C(F)(F)F)cc1C(=O)NC(=N)N [N-{2-Methoxy-4-[1-(pyridine-2-carbonyl)-piperidin-4-yl]-5-trifluoromethyl-benzoyl}-guanidine],43

row,Structure (SMILES),IC50 [nM]
1,"Cc1cc(C2CCN(C(=O)c3ccc4c(c3)CCC(=O)N4)CC2)c(C(F)(F)F)cc1C(=O)NC(=N)N [N-{2-Methyl-4-[1-(2-oxo-1,2,3,4-tetrahydro-quinoline-6-carbonyl)-piperidin-4-yl]-5-trifluoromethyl-benzoyl}-guanidine]",63
2,Cc1ccc(C(=O)N2CCC(c3cc(C)c(C(=O)NC(=N)N)cc3C(F)(F)F)CC2)cn1 [N-{2-Methyl-4-[1-(6-methyl-pyridine-3-carbonyl)-piperidin-4-yl]-trifluoromethyl-benzoyl}-guanidine],82
3,"Cc1cc(C2CCN(C(=O)c3ccc(=O)[nH]c3)CC2)c(C(F)(F)F)cc1C(=O)NC(=N)N [N-{2-Methyl-4-[1-(6-oxo-1,6-dihydro-pyridine-3-carbonyl)-piperidin-4-yl]-5-trifluoromethyl-benzoyl}-guanidine]",30
4,Cc1cc(C2CCN(C(=O)c3ncco3)CC2)c(C(F)(F)F)cc1C(=O)NC(=N)N [N-{2-Methyl-4-[1-(oxazole-2-carbonyl)-piperidin-4-yl]-5-trifluoromethyl-benzoyl}-guanidine],12
5,Cc1cc(C2CCN(C(=O)c3cccnc3)CC2)c(C(F)(F)F)cc1C(=O)NC(=N)N [N-{2-Methyl-4-[1-(pyridine-3-carbonyl)-piperidin-4-yl]-5-trifluoromethyl-benzoyl}-guanidine],30
6,Cc1cc(C2CCN(C(=O)c3ccncc3)CC2)c(C(F)(F)F)cc1C(=O)NC(=N)N [N-{2-Methyl-4-[1-(pyridine-4-carbonyl)-piperidin-4-yl]-5-trifluoromethyl-benzoyl}-guanidine],7
7,N=C(N)NC(=O)c1ccc(C2CCN(C(=O)c3cccc(C(F)(F)F)c3)CC2)c(C(F)(F)F)c1 [N-{3-Trifluoromethyl-4-[1-(3-trifluoromethyl-benzoyl)-piperidin-4-yl]-benzoyl}-guanidine],250
8,N=C(N)NC(=O)c1ccc(C2CCN(C(=O)c3ccc(C(F)(F)F)cc3)CC2)c(C(F)(F)F)c1 [N-{3-Triuoromethyl-4-[1-(4-trifluoromethyl-benzoyl)-piperidin-4-yl]-benzoyl}-guanidine],337
9,COCC(=O)N1CCC(c2ccc(C(=O)NC(=N)N)cc2S(C)(=O)=O)CC1 [N-{3-methanesulfonyl-4-[1-(2-methoxy-acetyl)-piperidin-4-yl]-benzoyl}-guanidine],24
10,CS(=O)(=O)c1cc(C(=O)NC(=N)N)ccc1C1CCN(C(=O)c2cccc(C(F)(F)F)c2)CC1 [N-{3-methanesulfonyl-4-[1-(3-trifluoromethyl-benzoyl)-piperidin-4-yl]-benzoyl}-guanidine],54
11,CCC(=O)N1CCC(c2ccc(C(=O)NC(=N)N)cc2S(C)(=O)=O)CC1 [N-{3-methanesulfonyl-4-[1-propionyl-piperidin-4-yl]-benzoyl}-guanidine],21
12,"Cc1cc(C(=O)N2CCC(c3ccc(C(=O)NC(=N)N)cc3C(F)(F)F)CC2)nn1C [N-{4-[1-(1,5-Dimethyl-1H-pyrazole-3-carbonyl)-piperidin-4-yl]-3-trifluoromethyl-benzoyl}-guanidine]",20
13,N=C(N)NC(=O)c1ccc(C2CCN(C(=O)C3(N)CCC3)CC2)c(C(F)(F)F)c1 [N-{4-[1-(1-Amino-cyclobutanecarbonyl)-piperidin-4-yl]-3-trifluoromethyl-benzoyl}-guanidine],31
14,N=C(N)NC(=O)c1ccc(C2CCN(C(=O)C3(N)CCCCC3)CC2)c(C(F)(F)F)c1 [N-{4-[1-(1-Amino-cyclohexanecarbonyl)-piperidin-4-yl]-3-trifluoromethyl-benzoyl}-guanidine],33
15,N=C(N)NC(=O)c1ccc(C2CCN(C(=O)C3(N)CCCC3)CC2)c(C(F)(F)F)c1 [N-{4-[1-(1-Amino-cyclopentanecarbonyl)-piperidin-4-yl]-3-trifluoromethyl-benzoyl}-guanidine],2
16,N=C(N)NC(=O)c1ccc(C2CCN(C(=O)C3(N)CCc4ccccc43)CC2)c(C(F)(F)F)c1 (centres unmarked) [N-{4-[1-(1-Amino-indane-1-carbonyl)-piperidin-4-yl]-3-trifluoromethyl-benzoyl}-guanidine],18
17,Cn1ccnc1C(=O)N1CCC(c2ccc(C(=O)NC(=N)N)cc2C(F)(F)F)CC1 [N-{4-[1-(1-Methyl-1H-imidazole-2-carbonyl)-piperidin-4-yl]-3-trifluoromethyl-benzoyl}-guanidine],15
18,Cn1cccc1C(=O)N1CCC(c2ccc(C(=O)NC(=N)N)cc2C(F)(F)F)CC1 [N-{4-[1-(1-Methyl-1H-pyrrole-2-carbonyl)-piperidin-4-yl]-3-trifluoromethyl-benzoyl}-guanidine],79
19,CN1CCCC(C(=O)N2CCC(c3ccc(C(=O)NC(=N)N)cc3C(F)(F)F)CC2)C1 (centres unmarked) [N-{4-[1-(1-Methyl-piperidine-3-carbonyl)-piperidin-4-yl]-3-trifluoromethyl-benzoyl}-guanidine],10
